Measured values from ChEMBL document CHEMBL4308841, “Synthesis, in vitro antiproliferative activity, and kinase inhibitory effects of pyrazole-containing diarylureas and diarylamides” (Eur J Med Chem, 2018).

Columns and labels:
T47D = test: Growth inhibition of human T47D cells assessed as cell growth at 0.1 uM incubated for 48 hrs by sulforhodamine B assay relative to control; type: functional; conditions: read-out: Activity
Malme-3M = test: Growth inhibition of human MALME-3M cells assessed as cell growth at 100 uM incubated for 48 hrs by sulforhodamine B assay relative to control; type: functional; conditions: read-out: Activity
SK-MEL-2 = test: Growth inhibition of human SK-MEL-2 cells assessed as cell growth at 1 uM incubated for 48 hrs by sulforhodamine B assay relative to control; type: functional; conditions: SK-MEL-2, 48 h, read-out: Activity
CCRF-CEM [1] = test: Growth inhibition of human CCRF-CEM cells assessed as cell growth at 0.1 uM incubated for 48 hrs by sulforhodamine B assay relative to control; type: functional; conditions: read-out: Activity
OVCAR-8 = test: Growth inhibition of human OVCAR8 cells incubated for 48 hrs by sulforhodamine B assay; type: functional, cell-based; conditions: OVCAR-8, 48 h
DU-145 = test: Growth inhibition of human DU145 cells incubated for 48 hrs by sulforhodamine B assay; type: functional, cell-based; conditions: DU-145, 48 h
BT-549 [2] = test: Growth inhibition of human BT549 cells incubated for 48 hrs by sulforhodamine B assay; type: functional, cell-based; conditions: BT-549, 48 h
SK-MEL-28 [3] = test: Growth inhibition of human SK-MEL-28 cells assessed as cell growth at 0.1 uM incubated for 48 hrs by sulforhodamine B assay relative to control; type: functional; conditions: SK-MEL-28, 48 h, read-out: Activity
ACHN = test: Growth inhibition of human ACHN cells assessed as cell growth at 0.01 uM incubated for 48 hrs by sulforhodamine B assay relative to control; type: functional; conditions: read-out: Activity
BT-549 [4] = test: Growth inhibition of human BT549 cells assessed as cell growth at 100 uM incubated for 48 hrs by sulforhodamine B assay relative to control; type: functional; conditions: BT-549, 48 h, read-out: Activity
SF-539 = test: Growth inhibition of human SF539 cells incubated for 48 hrs by sulforhodamine B assay; type: functional, cell-based; conditions: SF-539, 48 h
MOLT-4 = test: Growth inhibition of human MOLT4 cells assessed as cell growth at 0.01 uM incubated for 48 hrs by sulforhodamine B assay relative to control; type: functional; conditions: MOLT-4, 48 h, read-out: Activity
UACC-257 = test: Growth inhibition of human UACC257 cells incubated for 48 hrs by sulforhodamine B assay; type: functional, cell-based; conditions: UACC-257, 48 h
NCI-H23 = test: Growth inhibition of human NCI-H23 cells incubated for 48 hrs by sulforhodamine B assay; type: functional, cell-based; conditions: NCI-H23, 48 h
UO-31 = test: Growth inhibition of human UO31 cells incubated for 48 hrs by sulforhodamine B assay; type: functional, cell-based; conditions: UO-31, 48 h
NCI-H322M = test: Growth inhibition of human NCI-H322M cells assessed as cell growth at 0.1 uM incubated for 48 hrs by sulforhodamine B assay relative to control; type: functional; conditions: read-out: Activity
OVCAR-3 [5] = test: Growth inhibition of human OVCAR3 cells assessed as cell growth at 0.01 uM incubated for 48 hrs by sulforhodamine B assay relative to control; type: functional; conditions: OVCAR-3, 48 h, read-out: Activity
SK-MEL-28 [6] = test: Growth inhibition of human SK-MEL-28 cells assessed as cell growth at 0.01 uM incubated for 48 hrs by sulforhodamine B assay relative to control; type: functional; conditions: SK-MEL-28, 48 h, read-out: Activity
NCI/ADR-RES = test: Growth inhibition of human NCI/ADR-RES cells incubated for 48 hrs by sulforhodamine B assay; type: functional, cell-based
NCI-H522 = test: Growth inhibition of human NCI-H522 cells assessed as cell growth at 0.01 uM incubated for 48 hrs by sulforhodamine B assay relative to control; type: functional; conditions: NCI-H522, 48 h, read-out: Activity
RPMI-8226 = test: Growth inhibition of human RPMI8226 cells assessed as cell growth at 1 uM incubated for 48 hrs by sulforhodamine B assay relative to control; type: functional; conditions: RPMI-8226, 48 h, read-out: Activity
KM12 = test: Growth inhibition of human KM12 cells assessed as cell growth at 0.1 uM incubated for 48 hrs by sulforhodamine B assay relative to control; type: functional; conditions: KM12, 48 h, read-out: Activity
OVCAR-3 [7] = test: Growth inhibition of human OVCAR3 cells assessed as cell growth at 100 uM incubated for 48 hrs by sulforhodamine B assay relative to control; type: functional; conditions: OVCAR-3, 48 h, read-out: Activity
CCRF-CEM [8] = test: Growth inhibition of human CCRF-CEM cells assessed as cell growth at 1 uM incubated for 48 hrs by sulforhodamine B assay relative to control; type: functional; conditions: read-out: Activity
HL-60(TB) = test: Growth inhibition of human HL-60(TB) cells incubated for 48 hrs by sulforhodamine B assay; type: functional, cell-based; conditions: HL-60, 48 h
CAKI-1 = test: Growth inhibition of human Caki1 cells assessed as cell growth at 1 uM incubated for 48 hrs by sulforhodamine B assay relative to control; type: functional; conditions: CAKI-1, 48 h, read-out: Activity
PC-3 = test: Growth inhibition of human PC3 cells assessed as cell growth at 1 uM incubated for 48 hrs by sulforhodamine B assay relative to control; type: functional; conditions: PC-3, 48 h, read-out: Activity
MDA-MB-231 = test: Growth inhibition of human MDA-MB-231 cells assessed as cell growth at 1 uM incubated for 48 hrs by sulforhodamine B assay relative to control; type: functional; conditions: MDA-MB-231, 48 h, read-out: Activity
[9] = read-out: LC50 (the source's name)
[10] = read-out: pLC50 (the source's name) (converted)

Question: How did the growth at 0.1 µM (T47D) turn out when `COc1cc(Cl)cc(-c2nn(-c3cccc(NC(=O)Nc4ccc(Cl)c(C(F)(F)F)c4)c3)cc2-c2ccncc2)c1` was run?
Answer: 103%

Question: And the growth at 100 µM (Malme-3M)?
Answer: -35%

Question: And the growth at 1 µM (SK-MEL-2)?
Answer: 84%

Question: And the growth at 0.1 µM (CCRF-CEM [1])?
Answer: 97%

Question: And the GI50 (OVCAR-8; read-out: GI50)?
Answer: 0.739 µM

Question: And the CC50 (OVCAR-8; [9])?
Answer: > 100 µM

Question: And the TGI (OVCAR-8; read-out: TGI)?
Answer: 59.3 µM

Question: What about the GI50 (OVCAR-8; read-out: pGI50 (converted)) of the same compound?
Answer: 0.741 µM

Question: And the CC50 (OVCAR-8; [10])?
Answer: > 100 µM

Question: And the TGI (OVCAR-8; read-out: pTGI (converted))?
Answer: 7.08 µM

Question: What about the GI50 (DU-145; read-out: GI50) of the same compound?
Answer: 1.55 µM

Question: What about the CC50 (DU-145; [9]) of the same compound?
Answer: 55.2 µM

Question: And the TGI (DU-145; read-out: TGI)?
Answer: 14 µM

Question: What about the GI50 (DU-145; read-out: pGI50 (converted)) of the same compound?
Answer: 1.86 µM

Question: What about the CC50 (DU-145; [10]) of the same compound?
Answer: 56.2 µM

Question: And the TGI (DU-145; read-out: pTGI (converted))?
Answer: 14.1 µM

Question: And the GI50 (BT-549 [2]; read-out: GI50)?
Answer: 2.38 µM

Question: What about the CC50 (BT-549 [2]; [9]) of the same compound?
Answer: 25.8 µM

Question: And the TGI (BT-549 [2]; read-out: TGI)?
Answer: 65.5 µM

Question: What about the GI50 (BT-549 [2]; read-out: pGI50 (converted)) of the same compound?
Answer: 2.4 µM

Question: What about the CC50 (BT-549 [2]; [10]) of the same compound?
Answer: 28.8 µM

Question: And the TGI (BT-549 [2]; read-out: pTGI (converted))?
Answer: 6.61 µM

Question: What about the growth at 0.1 µM (SK-MEL-28 [3]) of the same compound?
Answer: 106%

Question: And the growth at 0.01 µM (ACHN)?
Answer: 91%

Question: What about the growth at 100 µM (BT-549 [4]) of the same compound?
Answer: -68%

Question: What about the GI50 (SF-539; read-out: GI50) of the same compound?
Answer: 1.5 µM

Question: And the CC50 (SF-539; [9])?
Answer: 7.51 µM

Question: What about the TGI (SF-539; read-out: TGI) of the same compound?
Answer: 33.5 µM

Question: What about the GI50 (SF-539; read-out: pGI50 (converted)) of the same compound?
Answer: 1.51 µM

Question: And the CC50 (SF-539; [10])?
Answer: 7.59 µM

Question: What about the TGI (SF-539; read-out: pTGI (converted)) of the same compound?
Answer: 3.39 µM

Question: What about the growth at 0.01 µM (MOLT-4) of the same compound?
Answer: 99%

Question: And the GI50 (UACC-257; read-out: GI50)?
Answer: 1.59 µM

Question: What about the CC50 (UACC-257; [9]) of the same compound?
Answer: 1.55 µM

Question: And the TGI (UACC-257; read-out: TGI)?
Answer: 49.3 µM

Question: What about the GI50 (UACC-257; read-out: pGI50 (converted)) of the same compound?
Answer: 1.91 µM

Question: What about the CC50 (UACC-257; [10]) of the same compound?
Answer: 18.6 µM

Question: And the TGI (UACC-257; read-out: pTGI (converted))?
Answer: 2.95 µM

Question: And the GI50 (NCI-H23; read-out: GI50)?
Answer: 1.36 µM

Question: What about the LC50 (NCI-H23; read-out: LC50) of the same compound?
Answer: > 100 µM

Question: What about the TGI (NCI-H23; read-out: TGI) of the same compound?
Answer: 62.3 µM

Question: And the GI50 (NCI-H23; read-out: pGI50 (converted))?
Answer: 1.35 µM

Question: And the LC50 (NCI-H23; read-out: pLC50 (converted))?
Answer: > 100 µM

Question: And the TGI (NCI-H23; read-out: pTGI (converted))?
Answer: 6.17 µM

Question: And the IC50 (UO-31)?
Answer: 1.66 µM

Question: And the GI50 (UO-31; read-out: GI50)?
Answer: 1.56 µM

Question: What about the CC50 (UO-31; [9]) of the same compound?
Answer: 95.4 µM

Question: What about the TGI (UO-31; read-out: TGI) of the same compound?
Answer: 10.9 µM

Question: And the GI50 (UO-31; read-out: pGI50 (converted))?
Answer: 1.66 µM

Question: What about the CC50 (UO-31; [10]) of the same compound?
Answer: 97.7 µM

Question: What about the TGI (UO-31; read-out: pTGI (converted)) of the same compound?
Answer: 11 µM

Question: What about the growth at 0.1 µM (NCI-H322M) of the same compound?
Answer: 98%

Question: And the growth at 0.01 µM (OVCAR-3 [5])?
Answer: 91%

Question: What about the growth at 0.01 µM (SK-MEL-28 [6]) of the same compound?
Answer: 98%

Question: What about the GI50 (NCI/ADR-RES; read-out: GI50) of the same compound?
Answer: 1.77 µM

Question: And the CC50 (NCI/ADR-RES; [9])?
Answer: > 100 µM

Question: And the TGI (NCI/ADR-RES; read-out: TGI)?
Answer: 11.5 µM

Question: And the GI50 (NCI/ADR-RES; read-out: pGI50 (converted))?
Answer: 1.78 µM

Question: What about the CC50 (NCI/ADR-RES; [10]) of the same compound?
Answer: > 100 µM

Question: What about the TGI (NCI/ADR-RES; read-out: pTGI (converted)) of the same compound?
Answer: 5.89 µM

Question: And the growth at 0.01 µM (NCI-H522)?
Answer: 93%

Question: And the growth at 1 µM (RPMI-8226)?
Answer: 17%

Question: And the growth at 0.1 µM (KM12)?
Answer: 98%

Question: And the growth at 100 µM (OVCAR-3 [7])?
Answer: -56%

Question: And the growth at 1 µM (CCRF-CEM [8])?
Answer: 37%

Question: And the GI50 (HL-60(TB); read-out: GI50)?
Answer: 1.55 µM

Question: What about the LC50 (HL-60(TB); read-out: LC50) of the same compound?
Answer: > 100 µM

Question: And the TGI (HL-60(TB); read-out: TGI)?
Answer: 55.3 µM

Question: What about the GI50 (HL-60(TB); read-out: pGI50 (converted)) of the same compound?
Answer: 1.66 µM

Question: And the LC50 (HL-60(TB); read-out: pLC50 (converted))?
Answer: > 100 µM

Question: What about the TGI (HL-60(TB); read-out: pTGI (converted)) of the same compound?
Answer: 5.5 µM

Question: What about the growth at 1 µM (CAKI-1) of the same compound?
Answer: 45%

Question: And the growth at 1 µM (PC-3)?
Answer: 14%

Question: What about the growth at 1 µM (MDA-MB-231) of the same compound?
Answer: 69%
